± gives the expanded uncertainty stated by the source.
Legend:
[1] = Boiling temperature at pressure P; settings: 101 kPa; Liquid; Ebulliometric method (Recirculating still)
[2] = Liquid, Manometric method

Compound: C=C(C)C(C)C [2,3-dimethyl-1-butene]
- Boiling temperature at pressure P [1]: 55.73 ± 0.04 °C

Compound: CC(C)=C(C)C [2,3-dimethyl-2-butene]
- Boiling temperature at pressure P [1]: 73.00 ± 0.04 °C

Compound: Cc1ccsc1 [3-methylthiophene]
- Boiling temperature at pressure P [1]: 115.20 ± 0.04 °C

Compound: CCCCCCC [heptane]
- Boiling temperature at pressure P [1]: 98.49 ± 0.04 °C
- vapor or sublimation pressure ([2]; 370.27 K): 97.43 ± 0.32 kPa
- vapor or sublimation pressure ([2]; 370.74 K): 98.52 ± 0.33 kPa
- vapor or sublimation pressure ([2]; 370.93 K): 99.39 ± 0.34 kPa
- vapor or sublimation pressure ([2]; 371.13 K): 99.78 ± 0.33 kPa
- vapor or sublimation pressure ([2]; 371.52 K): 101.07 ± 0.34 kPa
- vapor or sublimation pressure ([2]; 372.25 K): 103.43 ± 0.32 kPa
- vapor or sublimation pressure ([2]; 372.36 K): 103.56 ± 0.35 kPa
- vapor or sublimation pressure ([2]; 372.56 K): 104.41 ± 0.34 kPa
- vapor or sublimation pressure ([2]; 372.76 K): 104.67 ± 0.35 kPa
- vapor or sublimation pressure ([2]; 372.97 K): 105.83 ± 0.36 kPa
- vapor or sublimation pressure ([2]; 373.17 K): 106.29 ± 0.34 kPa
- vapor or sublimation pressure ([2]; 373.48 K): 107.02 ± 0.34 kPa

Compound: c1ccsc1 [thiophene]
- Boiling temperature at pressure P [1]: 84.27 ± 0.04 °C

— the NIST ThermoML archive (doi:10.1016/j.fluid.2013.05.019)
